The target of assay [1] is T1, hα2C receptor (Homo sapiens, UniProt P18825).
T1 construct: expressed in transfected cells; host or cells: CHO cells, stably transfected; membrane preparation
T1 sequence (P18825 1-462): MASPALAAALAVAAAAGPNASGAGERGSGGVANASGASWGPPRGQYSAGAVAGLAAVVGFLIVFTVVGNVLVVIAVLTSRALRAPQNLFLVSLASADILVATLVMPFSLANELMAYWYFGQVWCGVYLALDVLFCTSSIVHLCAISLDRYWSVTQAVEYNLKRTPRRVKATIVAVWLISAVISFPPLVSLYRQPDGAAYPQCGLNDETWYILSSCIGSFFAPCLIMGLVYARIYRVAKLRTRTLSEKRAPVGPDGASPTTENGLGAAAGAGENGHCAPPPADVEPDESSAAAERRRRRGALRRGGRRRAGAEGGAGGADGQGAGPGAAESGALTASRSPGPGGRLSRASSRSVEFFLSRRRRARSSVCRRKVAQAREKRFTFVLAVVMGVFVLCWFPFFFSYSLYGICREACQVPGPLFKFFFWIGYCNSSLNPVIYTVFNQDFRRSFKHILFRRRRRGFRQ
The assay can be described thus: Radioligand binding experiment for α2C-adrenoceptor ([3H]raulwolscine, CHO cell membranes). The note with it: [3H]raulwolscine binding; for IC50: read-out: h-α2C pIC50 (converted). Here is the method:
(§1) The interaction of a compound of Formula (I) with α2-adrenoceptor receptors was assessed in in vitro radioligand binding experiments. In general, a low concentration of a radioligand with a high binding affinity for a particular receptor or transporter is incubated with a sample of a tissue preparation enriched in a particular receptor or transporter or with a preparation of cells expressing cloned human receptors in a buffered medium. During the incubation, the radioligand binds to the receptor or transporter. When equilibrium of binding is reached, the receptor bound radioactivity is separated from the non-bound radioactivity, and the receptor- or transporter-bound activity is counted. The interaction of the test compounds with the receptor is assessed in competition binding experiments. Various concentrations of the test compound are added to the incubation mixture containing the receptor- or transporter preparation and the radioligand. The test compound in proportion to its binding affinity and its concentration inhibits binding of the radioligand. The radioligand used for hα2A and hα2C receptor binding was [^3H]-raulwolscine.
(§2) CHO cells, stabile transfected with human adrenergic-α2A and α2C receptor cDNA, were cultured in Dulbecco's Modified Eagle's Medium (DMEM)/Nutrient mixture Ham's F12 (ratio 1:1)(Gibco, Gent-Belgium) supplemented with 10% heat inactivated fetal calf serum (Life Technologies, Merelbeke-Belgium) and antibiotics (100 IU/ml penicillin G, 100 μg/ml streptomycin sulphate, 110 μg/ml pyruvic acid and 100 μg/ml L-glutamine). One day before collection, cells were induced with 5 mM sodiumbutyrate. Upon 80-90% of confluence, cells were scraped in phosphate buffered saline without Ca^2+ and Mg^2+ and collected by centrifugation at 1500×g for 10 minutes. The cells were homogenised in Tris-HCl 50 mM using an Ultraturrax homogenizer and centrifuged for 10 minutes at 23,500×g. The pellet was washed once by resuspension and rehomogenization and the final pellet was resuspended in Tris-HCl, divided in 1 ml aliquots and stored at −70° C.
(§3) Membranes were thawed and re-homogenized in incubation buffer (glycylglycine 25 mM, pH 8.0). […] Filters were rinsed extensively with ice-cold rinsing buffer (Tris-HCl 50 mM pH 7.4). Filter-bound radioactivity was determined by scintillation counting in a Topcount (Packard, Meriden, Conn.) and results were expressed as counts per minute (cpm). Non-specific binding was determined in the presence of 1 μM oxymetazoline for the hα2A receptor and 1 μM spiroxatrine for hα2C receptor.
(§4) Data from assays in the presence of compound were calculated as a percentage of total binding measured in the absence of test compound. Inhibition curves, plotting percent of total binding versus the log value of the concentration of the test compound, were automatically generated, and sigmoidal inhibition curves were fitted using non-linear regression. The pIC50 values of test compounds were derived from individual curves.

Assay [2] deals with T2, hα2A receptor (Homo sapiens, UniProt P08913).
T2 construct: expressed in transfected cells; host or cells: CHO cells, stably transfected; membrane preparation
T2 sequence (P08913 1-465): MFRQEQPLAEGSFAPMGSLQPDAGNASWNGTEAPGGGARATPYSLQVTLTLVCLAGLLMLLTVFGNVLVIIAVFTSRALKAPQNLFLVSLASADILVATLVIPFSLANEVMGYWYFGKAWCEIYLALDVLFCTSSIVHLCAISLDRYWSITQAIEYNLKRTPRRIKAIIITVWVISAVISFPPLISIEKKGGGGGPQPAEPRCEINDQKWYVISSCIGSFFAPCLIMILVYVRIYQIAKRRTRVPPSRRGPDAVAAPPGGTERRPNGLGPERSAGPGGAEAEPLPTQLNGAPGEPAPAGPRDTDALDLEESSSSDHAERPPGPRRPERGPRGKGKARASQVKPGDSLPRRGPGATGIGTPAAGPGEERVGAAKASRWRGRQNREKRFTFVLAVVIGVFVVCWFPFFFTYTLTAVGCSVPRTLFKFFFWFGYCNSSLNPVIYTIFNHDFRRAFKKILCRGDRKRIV
The assay can be described thus: Radioligand binding experiment for α2A-adrenoceptor ([3H]raulwolscine, CHO cell membranes). Particulars: [3H]raulwolscine binding; for IC50: read-out: h-α2A pIC50 (converted). The method, then:
as §1, §2, §3, §4

Assay [3] concerns the target T3, 5HT-Transporter (Homo sapiens, UniProt P31645).
T3 construct: Human platelet membranes (Oceanix Biosciences Corporation, Hanover, Md., USA) were thawed; tissue Oceanix Biosciences Corporation, Hanover, Md., USA; host or cells: human platelet membranes
The assay can be described thus: Binding experiment for the 5HT-transporter ([3H]paroxetine, human platelet membranes). The note with it: [3H]paroxetine 0.5 nM; for IC50: read-out: h-5HTT pIC50 (converted). Here is the method: as §1
Human platelet membranes (Oceanix Biosciences Corporation, Hanover, Md., USA) were thawed, diluted in buffer (Tris-HCl 50 mM, 120 mM NaCl and 5 mM KCl) and quickly (max 3 s) homogenised with an Ultraturrax homogenizer. […] Incubation was stopped by rapid filtration of the incubation mixture over GF/B filters, pre-wetted with 0.1% polyethyleneamine, using a Filtermate196 harvester (Packard, Meriden, Conn.). Filters were rinsed extensively with ice-cold buffer and radioactivity on the filters was counted in a Topcount liquid scintillation counter (Packard, Meriden, Conn.). Data were expressed as cpm. Imipramine (at 1 μM final concentration) was used to determine the non-specific binding.
as §4

T3 sequence (P31645 whole entry): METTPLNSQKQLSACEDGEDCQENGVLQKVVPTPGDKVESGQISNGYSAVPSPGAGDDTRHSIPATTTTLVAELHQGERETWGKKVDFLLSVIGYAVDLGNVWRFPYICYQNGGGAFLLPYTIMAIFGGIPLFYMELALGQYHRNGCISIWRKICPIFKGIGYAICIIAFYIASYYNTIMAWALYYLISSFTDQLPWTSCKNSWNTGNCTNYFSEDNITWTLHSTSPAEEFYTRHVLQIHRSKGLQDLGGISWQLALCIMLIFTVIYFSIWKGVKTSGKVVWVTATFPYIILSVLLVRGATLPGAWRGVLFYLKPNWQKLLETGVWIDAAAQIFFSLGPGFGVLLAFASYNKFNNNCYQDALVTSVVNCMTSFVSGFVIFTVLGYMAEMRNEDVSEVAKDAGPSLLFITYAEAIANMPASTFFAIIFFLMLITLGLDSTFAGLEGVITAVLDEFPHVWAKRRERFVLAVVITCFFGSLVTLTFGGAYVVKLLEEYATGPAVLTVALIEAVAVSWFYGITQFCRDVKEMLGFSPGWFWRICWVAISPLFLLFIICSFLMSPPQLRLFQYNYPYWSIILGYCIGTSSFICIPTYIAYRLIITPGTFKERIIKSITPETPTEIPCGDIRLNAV

In the case of `C/C(=C\c1ccccc1)CN1CCC(Nc2nccn(CCCNC(=O)CC3CCCC3)c2=O)CC1` [1-33], the IC50 in assay [1] is 12.6 nM; in assay [2] it was 200 nM; in assay [3] it was 794 nM.
Regarding `C/C(=C\c1ccccc1)CN1CCC(Nc2nccn(CC(=O)Nc3ccc(N4CCOCC4)cc3)c2=O)CC1` [1-45], the figures for the IC50 in assay [1], in assay [2] and in assay [3] were 39.8 nM, 126 nM and 2000 nM, respectively.
For `CC(=O)N1CCN(Cc2ccc(-n3ccnc(NC4CCN(C/C(C)=C/c5ccccc5)CC4)c3=O)cc2)CC1` [2-23], the “h-α2C pIC50” value in assay [1] is given as 7.4. The “h-α2A pIC50” value in assay [2] is listed as 6.1. Besides, the “h-5HTT pIC50” value in assay [3] is 5.1.
As to `O=c1c(NC2CCN(C/C=C/c3ccccc3)CC2)nccn1CCc1ccccc1` [16-14], the IC50 in assay [1] was 200 nM; in assay [2], 794 nM; in assay [3], 794 nM.
`C/C(=C\c1ccccc1)CN1CCC(Nc2nccn(CC(=O)N3CCN(C)CC3)c2=O)CC1` [2-20]: the IC50 in assay [1] is 3.16 nM; in assay [2], 63.1 nM; in assay [3], 2510 nM.
For `C/C(=C\c1ccccc1)CN1CCC(Nc2nccn(-c3ccc(N4CCOCC4)cc3)c2=O)CC1` [2-43], in that order: 20 nM, 126 nM and 3980 nM.
The like results for `C/C(=C\c1ccccc1)CN1CCC(Nc2nccn(-c3ccc(NCc4ccccc4)cc3)c2=O)CC1` [1-50] were, in that order, 3.16 nM, 100 nM and 631 nM.
For `C/C(=C\c1ccccc1)CN1CCC(Nc2nccn(CC(=O)C34CC5CC(CC(C5)C3)C4)c2=O)CC1` [7-10], in that order: 10 nM, 50.1 nM and 1260 nM.
`CC(=O)Cn1ccnc(NC2CCN(C/C=C/c3ccccc3)CC2)c1=O` [16-24]: the figures for the IC50 in assay [1], in assay [2] and in assay [3] were 316 nM, 1000 nM and more than 10000 nM, respectively.
For the compound `C/C(=C\c1ccccc1)CN1CCC(Nc2nccn(-c3cccc(N4CCC(N5CCCC5)CC4)c3)c2=O)CC1` [2-18], the values for the IC50 in assay [1], in assay [2] and in assay [3] were 1.26 nM, 12.6 nM and 794 nM, respectively.
The like results for `C/C(=C\c1ccccc1)CN1CCN(c2nccn(Cc3csc(C)n3)c2=O)CC1` [13-3] were, in that order, 79.4 nM, 316 nM and 6310 nM.
As for `C/C(=C\c1ccccc1)CN1CCC(Nc2nccn(-c3ccc(CN(C)Cc4ccccc4)cc3)c2=O)CC1` [1-54], the IC50 in assay [1] was 3.98 nM; in assay [2], 50.1 nM; in assay [3], 200 nM.
With `CC(=O)c1ccc(-n2ccnc(NC3CCN(C/C(C)=C/c4ccccc4)CC3)c2=O)cc1` [5-7], the IC50 in assay [1] was 10 nM; in assay [2] it was 25.1 nM; in assay [3] it was 631 nM.
Turning to `C/C(=C\c1ccccc1)CN1CCC(Nc2nccn(CCN3CCCCC3)c2=O)CC1` [2-4], the IC50 in assay [1] is 3.16 nM; in assay [3] it was 2510 nM.
Regarding `CCOC(=O)CN(Cc1ccccc1)C(=O)Cn1ccnc(NC2CCN(C/C(C)=C/c3ccccc3)CC2)c1=O` [1-101], the results for the IC50 in assay [1], in assay [2] and in assay [3] were 6.31 nM, 126 nM and 1580 nM, respectively.
For `C/C(=C\c1ccccc1)CN1CCN(c2nccn(Cc3ccc(CNC(=O)OC(C)(C)C)cc3)c2=O)CC1` [8-4], in that order: 79.4 nM, 158 nM and 1260 nM.
The like results for `C/C(=C\c1ccccc1)CN1CCC(Nc2nccn(-c3ccc(CNCCN4CCOCC4)cc3)c2=O)CC1` [1-150] were, in that order, 3.98 nM, 100 nM and 794 nM.
For the compound `C/C(=C\c1ccccc1)CN1CCN(c2nccn(C/C=C/c3ccccc3)c2=O)CC1` [12-3], the IC50 in assay [1] was 126 nM; in assay [2], 398 nM; in assay [3], 1260 nM.
For `C/C(=C\c1ccccc1)CN1CCN(c2nccn(CCOCc3ccccc3)c2=O)CC1` [10-3], the results for the IC50 in assay [1], in assay [2] and in assay [3] were 79.4 nM, 398 nM and 1260 nM, respectively.
For `CCCNCc1cccc(-n2ccnc(NC3CCN(C/C(C)=C/c4ccccc4)CC3)c2=O)c1` [1-11], in that order: 1 nM, 3.16 nM and 631 nM.
The like results for `C/C(=C\c1ccccc1)CN1CCC(Nc2nccn(Cc3ccc(CNS(=O)(=O)c4ccc(F)cc4)cc3)c2=O)CC1` [1-162] were, in that order, 20 nM, 100 nM and 316 nM.
In the case of `C/C(=C\c1ccccc1)CN1CCC(Nc2nccn(CCN3CCOCC3)c2=O)CC1` [2-40], in assay [1], the IC50 was 25.1 nM.
On to `C/C(=C\c1ccccc1)CN1CCC(Nc2nccn(-c3ccccn3)c2=O)CC1` [6-9], for which the IC50 in assay [1] was 5.01 nM; in assay [2], 25.1 nM.
For `COCCn1ccnc(NC2CCN(C/C(C)=C/c3ccccc3)CC2)c1=O` [3-5], in that order: 39.8 nM and 316 nM.
For `C/C(=C\c1ccccc1)CN1CCC(Nc2nccn(-c3ccccn3)c2=O)CC1` [6-10], in that order: 3.16 nM and 12.6 nM.
As to `C/C(=C\c1ccccc1)CN1CCC(Nc2ncc[nH]c2=O)CC1` [7-1], the IC50 in assay [1] was 31.6 nM; in assay [2], 100 nM.
For the compound `C/C(=C\c1ccccc1)CN1CCC(Nc2nccn(CCCNCc3ccccc3)c2=O)CC1` [1-46], the IC50 in assay [2] was 39.8 nM; in assay [3], 316 nM.
For the compound `C/C(=C\c1ccccc1)CN1CCC(Nc2nccn(CCCNCc3ccccc3)c2=O)CC1` [1-47], the figures for the IC50 in assay [2] and in assay [3] were 25.1 nM and 501 nM, respectively.
Turning to `C/C(=C\c1ccccc1)CN1CCC(Nc2nccn(CCCN)c2=O)CC1` [1-2], the IC50 in assay [2] is 39.8 nM.
Take `CC(=O)Cn1ccnc(NC2CCN(C/C(C)=C/c3ccccc3)CC2)c1=O` [7-7]: the results for the IC50 in assay [1] and in assay [2] were 12.6 nM and 50.1 nM, respectively.
For `C/C(=C\c1ccccc1)CN1CCN(c2nccn(CCCN3CCCC3=O)c2=O)CC1` [9-1], in that order: 251 nM and 2000 nM.
Consider `CN(C)CCCn1ccnc(NC2CCN(C/C=C/c3ccccc3)CC2)c1=O` [16-2], for which the IC50 is 63.1 nM in assay [1] and 501 nM in assay [2].

Values taken from patent US20090111801A1, “SUBSTITUTED PYRAZINONE DERIVATIVES FOR USE AS A MEDICINE” (Janssen Pharmaceutica N.V., priority 2006, published 2009).
